# Measured values reported in patent US20230128137A1, “BENZO FIVE-MEMBERED CYCLIC COMPOUND” (MEDSHINE DISCOVERY INC., priority 2020, published 2023).
# Like-named read-outs stand apart in the source and are kept apart here.
# Tests used:
# [1] = Liver microsome metabolic stability in vitro, CD-1 mouse; assay type: in vitro ADME; conditions: CD-1 mouse liver microsomes
# Method: (§1) 3.2 preparation of nicotinamide adenine dinucleotide phosphate cofactor solution: an appropriate amount of NADPH powder was weighed and diluted into 10 mM magnesium chloride solution (working solution concentration: 10 unit/mL; final concentration of reaction system: 1 unit/mL);
# (§2) 3.3 preparation of liver microsomes: an appropriate concentration working solution of liver microsomes (human, SD rat, CD-1 mouse, beagle dog) was prepared in 100 mM potassium phosphate buffer;
# (§3) 3.4 preparation of quenching solution: cold (4° C.) acetonitrile containing 200 ng/mL tolbutamide and 200 ng/mL labetalol as internal standard (IS) was used as quenching solution;
# (§4) 3.5 experimental operation:
# (§5) a. empty “incubation” plates T60 and NCF60 were preheated for 10 minutes;
# (§6) b. the liver microsomes were diluted to 0.56 mg/mL with 100 mM phosphate buffer;
# (§7) c. 445 μL of microsomal working solution (0.56 mg/mL) was transferred to the preheated “incubation” plates T60 and NCF60, and then the“incubation” plates T60 and NCF60 were preincubated for 10 min with continuous shaking at 37° C. 54 μL of liver microsomes were transferred to a blank plate, and 6 μL of NAPDH cofactor was added to the blank plate, and then 180 μL of quenching solution was added thereto;
# (§8) e. for NCF60 plate, 50 μL of buffer was added thereto and the mixture was fully mixed for three times. Timing was started; the plate was shaken at 37° C. for 60 minutes;
# (§9) f. in “quenching” plate TO, 180 μL of quenching solution and 6 μL of NAPDH cofactor were addded to make sure that the plate was cooled down to prevent evaporation;
# (§10) g. for T60 plates, the mixture was fully mixed for three times, and 54 μL of mixture was immediately transferred to the “quenching” plate at the 0 min time point. 44 μL of NAPDH cofactor was then added to the culture plate (T60). Timing was started; the plate was shaken at 37° C. for 60 minutes;
# (§11) h. at 5, 10, 20, 30 and 60 min, 180 μL of quenching solution was added to the “quenching” plate, and the mixture was mixed for one time, and 60 μL of sample was continuously transferred from the T60 plate to the “quenching” plate at each time point;
# (§12) i. for NCF60: the mixture was mixed for one time, and 60 μL of sample was transferred from the NCF60 culture dish to the “quenching” plate containing quenching solution at 60 minutes time point;
# (§13) j. all sampling plates were shaked for 10 minutes, then centrifuged at 4000 rpm for 20 minutes at 4° C.;
# (§14) k. 60 μL of supernatant was transferred into 180 μL of HPLC water and stirred with a plate shaker for 10 min;
# (§15) 1. before LC-MS/MS analysis, each bioanalysis plate was sealed and shaked for 10 minutes.
# [2] = Liver microsome metabolic stability in vitro, human; assay type: in vitro ADME; conditions: human liver microsomes
# Method: as §1, §2, §3, §4, §5, §6, §7, §8, §9, §10, §11, §12, §13, §14, §15
# [3] = tested on: RS4;11 cells; experiment: CTG (CellTiter-Glo) test of inhibition of RS4;11 cell proliferation; assay type: cell-based; conditions: Homo sapiens, 72 hours incubation
# Method: 2.1 Experimental objectives: To obtain the IC50 value of the test compound in RS4;11 cell lines;
# 2.2 incubation time: 72 hours;
# 2.3 experimental method: CTG (Cell Titer-Glo™ Luminescent Cell Viability Assay);
# a. when the cells were fused to 80%, the cells were collected and counted;
# b. RS4; 11 cell suspension was diluted to 5000 cells/well and 20 uls of cell suspension was seeded in each well of 384-well plate;
# c. the cell plates were placed back to 37° C. and incubated in a 5% carbon dioxide incubator for 24 hours;
# d. the test compound was prepared into DMSO solution, and 5 μL of each was added to the designated well of the test plate, and the final concentration of DMSO solution was 0.5%;
# e. initiation cell viability was detected by CTG;
# f. the test plate was put back into the incubator and incubated for another 72 hours;
# g. after 72 hours incubation, CellTiter-Glo™ luminescent cell viability assay was completed according to the manufacturer's manual;
# [4] = In vivo pharmacokinetic property evaluation in CD-1 mice (IV and PO); conditions: mouse, plasma; for MRT last: read-out: MRT0-last
# Method: The in vivo pharmacokinetic properties of compound 2 were evaluated in CD-1 mice by intravenous administration and oral administration. IV (intravenous injection) refers to slow administration in jugular vein, and PO (oral administration) refers to administration by gavage. Formulations for intravenous and gavage administration were both 2.5% dimethylsulfoxide, 5% ethanol, 10% cremophor EL, 20% glucose solution (concentration of 5%), 62.5% water. PK time points in the intravenous injection group were 5 min, 15 min, 30 min, 1 h, 2 h, 4 h, 8 h, 12 h and 24 h after administration, respectively, and PK time points in the gastric administration group were 15 min, 30 min, 1 h, 2 h, 4 h, 8 h and 24 h after administration, respectively. Approximately 0.03 mL of blood was collected at each time point. Blood from each sample was transferred to a plastic microcentrifuge tube containing EDTA-K2, centrifuged at 4000 rpm for 5 min in a 4° C. centrifuge, and plasma was collected within 15 min, and the plasma samples were stored in polypropylene tubes. Before the test, samples were stored in a refrigerator at −75±15° C. The concentration of compounds in plasma samples was analyzed using the LCMS/MS method and the following pharmacokinetic parameters were calculated using WinNonlin software (Phoenix™, version 6.1): IV: C0, Cl, Vd, T1/2, AUC0-last, MRT0-last, regression points; PO: Cmax, Tmax, T1/2, AUC0-last, MRT0-last, regression points. Pharmacokinetic data were described using descriptive statistics, such as mean, standard deviation.
compound,measurement,setting,value
CC1(C)CCC(CN2CCN(c3ccc(C(=O)NS(=O)(=O)c4cc([N+](=O)[O-])c(NCC5CCOCC5)c5[nH]cnc45)c(Oc4cnc5[nH]ccc5c4)c3)CC2)=C(c2ccc(Cl)cc2)C1 [Compound 2],CLint scaled at 1 µM,[1],79.7 mL/min/kg
same,half-life at 1 µM,[1],1.15 h
same,Remaining (T = 60 min),[1]; 60 min incubation,54.6%
same,Remaining (T = 60 min),[2]; 60 min incubation,45.6%
same,CLint scaled at 1 µM,[2]; human,23.9 mL/min/kg
same,half-life at 1 µM,[2]; human,0.87 h
same,IC50,[3],2.7 nM
same,AUC(0-t),"[4]; 1 mg/kg, IV, 1 mpk",1.8 µM·h
same,C0,"[4]; 1 mg/kg, IV, 1 mpk",11.7 µM
same,clearance,"[4]; 1 mg/kg, IV, 1 mpk",10.2 mL/min/kg
same,half-life,"[4]; 1 mg/kg, IV, 1 mpk",3.35 h
same,MRT last,"[4]; 1 mg/kg, IV, 1 mpk",1.21 h
same,Vd,"[4]; 1 mg/kg, IV, 1 mpk, read-out: Vdss",0.834 L/kg
same,AUC(0-t),"[4]; 50 mg/kg, PO, 50 mpk",12.8 µM·h
same,Cmax,"[4]; 50 mg/kg, PO, 50 mpk",1.79 µM
same,Tmax,"[4]; 50 mg/kg, PO, 50 mpk",3 h
same,half-life,"[4]; 50 mg/kg, PO, 50 mpk",4.1 h
same,MRT last,"[4]; 50 mg/kg, PO, 50 mpk",6.22 h
